Test results: ChEMBL document CHEMBL1201862, “PubChem BioAssay data set” (2004)
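These data come from cells grown in 96-well plates and exposed to compound for 48 hours at five concentrations. The concentration for 50% growth inhibition is given as GI50.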 The source made the active and inactive calls. Rule as the data show it: active = GI50 up to about 1.1 µM and inactive = higher.

What was measured:
Experiment in all cases: NCI tumour cell line growth inhibition, 48 h
A549 = tested on: A549
DU-145 = tested on: DU-145
SF-295 = tested on: SF-295
MDA-N = tested on: MDA-N
NCI-H460 = tested on: NCI-H460
HOP-62 = tested on: HOP-62
SF-268 = tested on: SF-268
OVCAR-5 = tested on: OVCAR-5
T47D = tested on: T47D
SK-MEL-28 = tested on: SK-MEL-28
CAKI-1 = tested on: CAKI-1
HOP-92 = tested on: HOP-92
SK-MEL-5 = tested on: SK-MEL-5
786-0 = tested on: 786-0
SNB-75 = tested on: SNB-75
OVCAR-3 = tested on: OVCAR-3
HCC 2998 = tested on: HCC 2998
SR = tested on: SR
M14 = tested on: M14
SN12C = tested on: SN12C
SF-539 = tested on: SF-539
NCI-H522 = tested on: NCI-H522
OVCAR-4 = tested on: OVCAR-4
NCI/ADR-RES = tested on: NCI/ADR-RES
SK-OV-3 = tested on: SK-OV-3
HT-29 = tested on: HT-29
HCT-15 = tested on: HCT-15
RXF 393 = tested on: RXF 393
ACHN = tested on: ACHN
K562 = tested on: K562
BT-549 = tested on: BT-549
KM12 = tested on: KM12
UO-31 = tested on: UO-31
TK-10 = tested on: TK-10
CCRF-CEM = tested on: CCRF-CEM
HL-60 = tested on: HL-60
U-251 = tested on: U-251
Hs-578T = tested on: Hs-578T
A498 = tested on: A498
UACC-257 = tested on: UACC-257
NCI-H23 = tested on: NCI-H23
LOX IMVI = tested on: LOX IMVI
COLO 205 = tested on: COLO 205
HCT-116 = tested on: HCT-116
SW-620 = tested on: SW-620
MOLT-4 = tested on: MOLT-4
SNB-19 = tested on: SNB-19
IGROV-1 = tested on: IGROV-1
OVCAR-8 = tested on: OVCAR-8
PC-3 = tested on: PC-3
EKVX = tested on: EKVX
Malme-3M = tested on: Malme-3M
SK-MEL-2 = tested on: SK-MEL-2
NCI-H226 = tested on: NCI-H226
RPMI-8226 = tested on: RPMI-8226
MCF7 = tested on: MCF7

Measured: GI50

CCCCCCCCCCC[N+]1(Cc2ccccc2)CC2CCN(Cc3ccccc3)CC2C1 (stereo unspecified)
inactive: A549 1200 nM | NCI-H460 1290 nM | OVCAR-5 1550 nM | CAKI-1 1400 nM | SNB-75 1150 nM | SF-539 1150 nM | NCI/ADR-RES 5090 nM | SK-OV-3 1750 nM | ACHN 1170 nM | UO-31 1300 nM | TK-10 1290 nM | A498 1500 nM
1520 nM: HCT-15
active: DU-145 470 nM | SF-295 1090 nM | MDA-N 233 nM | HOP-62 818 nM | SF-268 555 nM | T47D 166 nM | SK-MEL-28 665 nM | HOP-92 451 nM | SK-MEL-5 173 nM | 786-0 1030 nM | OVCAR-3 371 nM | HCC 2998 649 nM | SR 54.6 nM | M14 383 nM | SN12C 327 nM | NCI-H522 106 nM | OVCAR-4 679 nM | HT-29 377 nM | RXF 393 587 nM | K562 125 nM | BT-549 305 nM | KM12 247 nM | CCRF-CEM 261 nM | HL-60 106 nM | U-251 261 nM | Hs-578T 354 nM | UACC-257 288 nM | NCI-H23 181 nM | LOX IMVI 382 nM | COLO 205 1010 nM | HCT-116 284 nM | SW-620 381 nM | MOLT-4 199 nM | SNB-19 371 nM | IGROV-1 429 nM | OVCAR-8 422 nM | PC-3 234 nM | EKVX 323 nM | Malme-3M 342 nM | SK-MEL-2 261 nM | NCI-H226 670 nM | RPMI-8226 101 nM | MCF7 447 nM
